{"source": "patent US6358934B1", "about": "“Anti-retroviral activity of 2′,3′-dideoxy-3′-fluoronucleosides” (Medivir AB, priority 1986, dated 2002)", "key": {"[1]": {"test_system": "HIV (HTLV-III/LAV) in H9 cells", "experiment": "Expressed reverse transcriptase activity in HIV-infected H9 cell cultures", "format": "cell-based", "protocol": "The cells were then pelleted and dispersed in 2.5 ml phosphate buffered saline (PBS) including 2 μg/ml Polybrene. After incubation for 30 min the cells were pelleted and infected with HIV. After an adsorption period of 1 hour the cells were pelleted and washed once with 2.5 ml PBS. […] Samples for reverse transcriptase activity tests were taken as indicated.\n1.3 ml samples from the supernatant of each culture were centrifuged at 18 000 rpm in a 55-34 rotor for 1.5 hours and the virus pellet resuspended in 100 μl buffer containing 50 mM Tris-HCl, pH 7.5; 35 mM KCl; 4 mM DTT; 1 mM EDTA; 1.3% Triton X-100. 50 μl samples were taken to the reverse transcriptase activity tests and analyzed in a 100 μl reaction mixture containing 75 mM Tris-HCl, pH 8.0; 60 mM KCl; 6.2 mM MgCl2; 6 mM DTT; 0.5 mM EDTA; 0.65% Triton X-100, 100 μg/ml BSA; 25 μCi/ml ^3H-dTTP (spec activity 80 Ci/mmol); 2.5 μg/ml (dT)12-18; and 2.0 μg/ml (rA)n. Incubation was for 1 hour at 37° C. and the TCA-insoluble product precipitated onto Whatman GF/A filter papers, washed and dried, and counted in a liquid scintillation counter.\nThe amounts of reverse transcriptase molecules and their total activity expressed in HIV-infected cell cultures is correlated to the amount of HIV particles present. The addition of an effective antiviral agent which inhibits the production of new HIV particles, also decreases the amount of reverse transcriptase molecules and is expressed as a decreased total activity."}, "[2]": {"biological_target": "T1, reverse transcriptase of HIV (HTLV-III/LAV) (Human immunodeficiency virus type 1 group M subtype B, UniProt P03366)", "T1 construct": "reverse transcriptase from HIV (HTLV-III/LAV)", "experiment": "Cell-free assay of HIV reverse transcriptase", "format": "biochemical", "procedure": "A cell-free assay system has been used to investigate the inhibition of 3′-deoxy-3′-fluorothymidine on reverse transcriptase of HIV (HTLV-III/LAV). The assay was performed as described by Vrang et Öberg, Antimicrob. Agents Chemother. 29, 867-872 (1986). With this assay the 3′-deoxy-3′-fluoro-thymidine-5′-triphosphate has been tested, instead of the prodrug 3′-deoxy-3′-fluorothymidine to evaluate its potential against reverse transcriptase from HIV (HTLV-III/LAV)."}, "[3]": {"biological_target": "DNA polymerase of hepatitis B virus (HBV) (Hepatitis B virus genotype D subtype ayw, UniProt P03156)", "sequence (P03156 whole entry)": "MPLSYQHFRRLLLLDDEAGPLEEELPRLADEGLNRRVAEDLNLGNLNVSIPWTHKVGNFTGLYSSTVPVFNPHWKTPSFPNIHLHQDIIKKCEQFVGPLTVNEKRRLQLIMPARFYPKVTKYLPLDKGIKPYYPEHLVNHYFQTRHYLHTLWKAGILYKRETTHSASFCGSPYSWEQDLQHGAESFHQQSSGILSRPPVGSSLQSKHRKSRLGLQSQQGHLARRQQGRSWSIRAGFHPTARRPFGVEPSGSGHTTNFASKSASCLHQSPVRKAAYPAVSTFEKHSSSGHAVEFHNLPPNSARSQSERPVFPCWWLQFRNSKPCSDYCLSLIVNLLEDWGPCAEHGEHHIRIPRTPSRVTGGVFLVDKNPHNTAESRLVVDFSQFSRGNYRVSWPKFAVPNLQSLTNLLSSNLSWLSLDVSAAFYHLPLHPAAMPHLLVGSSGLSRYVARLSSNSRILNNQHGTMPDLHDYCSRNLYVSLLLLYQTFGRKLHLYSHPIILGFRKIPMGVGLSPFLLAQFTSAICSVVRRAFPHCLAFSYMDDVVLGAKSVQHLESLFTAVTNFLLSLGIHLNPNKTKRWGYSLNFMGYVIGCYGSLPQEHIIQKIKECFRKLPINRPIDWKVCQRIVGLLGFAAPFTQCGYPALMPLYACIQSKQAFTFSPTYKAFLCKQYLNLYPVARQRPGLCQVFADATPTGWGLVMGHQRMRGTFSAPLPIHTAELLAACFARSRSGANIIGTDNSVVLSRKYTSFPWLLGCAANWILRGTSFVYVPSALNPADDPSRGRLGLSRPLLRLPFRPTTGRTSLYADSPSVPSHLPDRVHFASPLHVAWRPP", "experiment": "biochemical", "settings": "3 hours incubation at 37° C., cpm vs water control", "source_text": "Since hepatitis B virus cannot be grown in cell cultures, a cell-free assay system of the hepatitis B virus DNA polymerase has been used to investigate the effect of 3′-deoxy-3′-fluorothymidine. 3′-Deoxy-3′-fluorothymidine in cells is transformed to 3′-deoxy-3′-fluorothymidine-5′-triphosphate.\nThe HBV associated DNA polymerase activity can be measured in vitro (Kaplan et al., J. Virol., 12, 995-1005, 1973). A slight modification of this method has been used to test the substance for inhibition of this DNA polymerase activity. (Nordenfelt E., Öberg, B., Helgstrand E. and Miller E. Acta path., Microbiol. Scand. Sect B, 88:169-175, 1980). With this assay the 3′-deoxy-3′-fluorothymidine-5′-triphosphate has been tested, instead of the prodrug 3′-deoxy-3′-fluorothymidine, to evaluate its potential against hepatitis B virus DNA polymerase.\n3′-deoxy-3′-fluorothymidine-5′-triphosphate was added to the final concentrations of 0.01 μM, 0.05 μM, 0.1 μM, 0.5 μM and 1.0 μM in the reaction mixture. The inhibition is calculated after 3 hours incubation at 37° C. and based on cpm compared to control with added water."}}, "data": [{"compound": "Cc1cn([C@H]2C[C@H](F)[C@@H](CO)O2)c(=O)[nH]c1=O", "note": "[3′-deoxy-3′-fluorothymidine]", "values": [{"measurement": "Reverse transcriptase activity", "setting": "[1]; 0.01 μM, 4 days post-infection, 0 μM control 0.9", "value": 0.5, "unit": "cpm × 10^−3"}, {"measurement": "Reverse transcriptase activity", "setting": "[1]; 0.01 μM, 8 days post-infection, 0 μM control 19", "value": 1.3, "unit": "cpm × 10^−3"}, {"measurement": "Reverse transcriptase activity", "setting": "[1]; 0.01 μM, 11 days post-infection, 0 μM control 17", "value": 1.9, "unit": "cpm × 10^−3"}, {"measurement": "Reverse transcriptase activity", "setting": "[1]; 0.01 μM, 15 days post-infection, 0 μM control 11", "value": 2.7, "unit": "cpm × 10^−3"}, {"measurement": "Reverse transcriptase activity", "setting": "[1]; 0.01 μM, 18 days post-infection, 0 μM control 27", "value": 28, "unit": "cpm × 10^−3"}, {"measurement": "Reverse transcriptase activity", "setting": "[1]; 0.01 μM, 22 days post-infection, 0 μM control 46", "value": 52, "unit": "cpm × 10^−3"}, {"measurement": "Reverse transcriptase activity", "setting": "[1]; 0.01 μM, 29 days post-infection, 0 μM control 16", "value": 21, "unit": "cpm × 10^−3"}, {"measurement": "effect on reverse transcriptase activity of HIV in infected H9 cells (in words)", "setting": "[1]; 0.01 μM, up to 11 days", "value": "enzyme activity was not detected"}, {"measurement": "Reverse transcriptase activity", "setting": "[1]; 0.05 μM, 4 days post-infection, 0 μM control 0.9", "value": 0.3, "unit": "cpm × 10^−3"}, {"measurement": "Reverse transcriptase activity", "setting": "[1]; 0.05 μM, 8 days post-infection, 0 μM control 19", "value": 0.3, "unit": "cpm × 10^−3"}, {"measurement": "Reverse transcriptase activity", "setting": "[1]; 0.05 μM, 11 days post-infection, 0 μM control 17", "value": 0.4, "unit": "cpm × 10^−3"}, {"measurement": "Reverse transcriptase activity", "setting": "[1]; 0.05 μM, 15 days post-infection, 0 μM control 11", "value": 0.6, "unit": "cpm × 10^−3"}, {"measurement": "Reverse transcriptase activity", "setting": "[1]; 0.05 μM, 18 days post-infection, 0 μM control 27", "value": 0.5, "unit": "cpm × 10^−3"}, {"measurement": "Reverse transcriptase activity", "setting": "[1]; 0.05 μM, 22 days post-infection, 0 μM control 46", "value": 1.6, "unit": "cpm × 10^−3"}, {"measurement": "Reverse transcriptase activity", "setting": "[1]; 0.05 μM, 29 days post-infection, 0 μM control 16", "value": 3.1, "unit": "cpm × 10^−3"}, {"measurement": "effect on reverse transcriptase activity of HIV in infected H9 cells (in words)", "setting": "[1]; 0.05 μM, up to 22 days", "value": "no significant enzyme activity was detected"}, {"measurement": "effect on reverse transcriptase activity of HIV in infected H9 cells (in words)", "setting": "[1]; 0.1 μM and higher concentrations, during at least 29 days", "value": "completely prevents the enzyme activity"}, {"measurement": "Reverse transcriptase activity", "setting": "[1]; 0.1 μM, 4 days post-infection, 0 μM control 0.9", "value": 0.2, "unit": "cpm × 10^−3"}, {"measurement": "Reverse transcriptase activity", "setting": "[1]; 0.1 μM, 8 days post-infection, 0 μM control 19", "value": 0.2, "unit": "cpm × 10^−3"}, {"measurement": "Reverse transcriptase activity", "setting": "[1]; 0.1 μM, 11 days post-infection, 0 μM control 17", "value": 0.5, "unit": "cpm × 10^−3"}, {"measurement": "Reverse transcriptase activity", "setting": "[1]; 0.1 μM, 15 days post-infection, 0 μM control 11", "value": 0.4, "unit": "cpm × 10^−3"}, {"measurement": "Reverse transcriptase activity", "setting": "[1]; 0.1 μM, 18 days post-infection, 0 μM control 27", "value": 0.4, "unit": "cpm × 10^−3"}, {"measurement": "Reverse transcriptase activity", "setting": "[1]; 0.1 μM, 22 days post-infection, 0 μM control 46", "value": 0.2, "unit": "cpm × 10^−3"}, {"measurement": "Reverse transcriptase activity", "setting": "[1]; 0.1 μM, 29 days post-infection, 0 μM control 16", "value": 0.2, "unit": "cpm × 10^−3"}, {"measurement": "Reverse transcriptase activity", "setting": "[1]; 0.5 μM, 4 days post-infection, 0 μM control 0.9", "value": 0.3, "unit": "cpm × 10^−3"}, {"measurement": "Reverse transcriptase activity", "setting": "[1]; 0.5 μM, 8 days post-infection, 0 μM control 19", "value": 0.3, "unit": "cpm × 10^−3"}, {"measurement": "Reverse transcriptase activity", "setting": "[1]; 0.5 μM, 11 days post-infection, 0 μM control 17", "value": 0.5, "unit": "cpm × 10^−3"}, {"measurement": "Reverse transcriptase activity", "setting": "[1]; 0.5 μM, 15 days post-infection, 0 μM control 11", "value": 0.3, "unit": "cpm × 10^−3"}, {"measurement": "Reverse transcriptase activity", "setting": "[1]; 0.5 μM, 18 days post-infection, 0 μM control 27", "value": 0.6, "unit": "cpm × 10^−3"}, {"measurement": "Reverse transcriptase activity", "setting": "[1]; 0.5 μM, 22 days post-infection, 0 μM control 46", "value": 0.1, "unit": "cpm × 10^−3"}, {"measurement": "Reverse transcriptase activity", "setting": "[1]; 0.5 μM, 29 days post-infection, 0 μM control 16", "value": 0.2, "unit": "cpm × 10^−3"}, {"measurement": "Reverse transcriptase activity", "setting": "[1]; 1.0 μM, 4 days post-infection, 0 μM control 0.9", "value": 0.3, "unit": "cpm × 10^−3"}, {"measurement": "Reverse transcriptase activity", "setting": "[1]; 1.0 μM, 8 days post-infection, 0 μM control 19", "value": 0.2, "unit": "cpm × 10^−3"}, {"measurement": "Reverse transcriptase activity", "setting": "[1]; 1.0 μM, 11 days post-infection, 0 μM control 17", "value": 0.5, "unit": "cpm × 10^−3"}, {"measurement": "Reverse transcriptase activity", "setting": "[1]; 1.0 μM, 15 days post-infection, 0 μM control 11", "value": 0.4, "unit": "cpm × 10^−3"}, {"measurement": "Reverse transcriptase activity", "setting": "[1]; 1.0 μM, 18 days post-infection, 0 μM control 27", "value": 0.5, "unit": "cpm × 10^−3"}, {"measurement": "Reverse transcriptase activity", "setting": "[1]; 1.0 μM, 22 days post-infection, 0 μM control 46", "value": 0.1, "unit": "cpm × 10^−3"}, {"measurement": "Reverse transcriptase activity", "setting": "[1]; 1.0 μM, 29 days post-infection, 0 μM control 16", "value": 0.2, "unit": "cpm × 10^−3"}]}, {"compound": "Cc1cn([C@H]2C[C@H](F)[C@@H](COP(=O)(O)OP(=O)(O)OP(=O)(O)O)O2)c(=O)[nH]c1=O", "note": "[3′-deoxy-3′-fluorothymidine-5′-triphosphate]", "values": [{"measurement": "% inhibition of HIV (HTLV-III/LAV) reverse transcriptase", "setting": "[2]; 0.01 μM", "value": 12, "unit": "%"}, {"measurement": "% inhibition of HIV (HTLV-III/LAV) reverse transcriptase", "setting": "[2]; 0.05 μM", "value": 27, "unit": "%"}, {"measurement": "% inhibition of HIV (HTLV-III/LAV) reverse transcriptase", "setting": "[2]; 0.1 μM", "value": 38, "unit": "%"}, {"measurement": "inhibition at 0.01 µM", "setting": "[3]; 0.01 μM", "value": 17, "unit": "%"}, {"measurement": "inhibition at 0.05 µM", "setting": "[3]; 0.05 μM", "value": 17, "unit": "%"}, {"measurement": "inhibition at 0.1 µM", "setting": "[3]; 0.1 μM", "value": 39, "unit": "%"}, {"measurement": "inhibition at 0.5 µM", "setting": "[3]; 0.5 μM", "value": 79, "unit": "%"}]}]}
